Data from patent US11026936B2, “Piperidinyl-propanone derivatives” (Merck Patent GmbH, priority 2016, dated 2021).

Assays:
human PDHK2 (12-407) = human PDHK2 (12-407) (Homo sapiens (Human), UniProt Q15119); test: Isothermal titration calorimetry (ITC) binding; conditions: 30° C., pH 7.5
Description: Isothermal Titration Calorimetry
ITC measurements were performed with a VP-ITC micro calorimeter (Microcal, LLC/GE Healthcare Bio-Sciences AB, Uppsala, Sweden). In general titrations were performed by titrating the protein (50 μM) to the test compound (5 μM) in 12 μl injections. All binding experiments were carried out at 30° C. In general the test compounds were diluted form DMSO stock solutions into the measurement buffer with a maximum final concentration of 1% DMSO. The measurement buffer was 20 mM HEPES, 135 mM KCl, 1 mM TCEP, 2 mM MgCl2, 15 mM NaH2PO4, pH 7.5. The human PDHK2 (12-407) was produced in E. coli as his-tagged protein and purified by affinity chromatography. The tag was removed by side specific proteolysis. Before titration the protein buffer was changed to the measurement buffer containing the same DMSO concentration as the test compound dilution. ITC data analysis was performed using Origin 7 calorimetry software from the same supplier. For most measurements a binding model of one binding site was assumed. According to the applied mathematical model it is possible to calculate the binding constant (KA), the observed binding enthalpy (ΔH^obs) as well as the stoichiometry (N) of the formed complex. Preceding analysis the raw data was corrected for the heats of dilution by extrapolating from the saturation value from the end of titration. In order to allow for direct comparison between the respective experimental series and protein preparations the protein concentration was corrected by referencing titrations to a well behaved standard inhibitor. The apparent stoichiometry values defined the fraction of binding competent protein and compensated for relative errors in protein concentration measurements. This corrected protein concentration was used to set up ITC experiment series with test compounds. Any deviations from ideal 1:1 stoichiometry observed here were attributed to errors in compound concentration. This nominal compound concentration was corrected as well to achieve 1:1 stoichiometry in the fit.

PDHK2 = PDHK2 (Homo sapiens (Human), UniProt Q15119); test: Biochemical activity testing of PDHK2: PDC inactivation assay; conditions: human rec PDHK2, PDC from porcine heart, ATP 5 μM; read-out: IC50 PDHK2 (enzyme assay)
Excerpt: Biochemical Activity Testing of PDHK2: PDC Inactivation Assay
The biochemical activity assay for PDHK2 is based on the inactivation of PDC through phosphorylation by PDHK2. The assay is run in two steps: the enzymatic PDHK2 reaction in which isolated PDC is phosphorylated by PDHK2 with ATP as co-substrate and the PDC activity assay in which pyruvate and NAD are converted to acetyl-CoA and NADH. The PDC activity correlates to the increase in NADH and thereby is detectable directly via the increasing fluorescence signal (Exc 340 nm, Em 450 nm). Inhibition of PDHK2 results in a lower phosphorylation status and thereby a less decrease in activity of PDC and a stronger increase in NADH fluorescence signal.
The PDC inactivation assay is performed in Greiner 384-well microtiter plates and is used for high throughput screen. 4 μl of PDHK2 (human, rec, Carna Bioscience, 10 ng/μl-137 nM final concentration) and PDC (isolated from porcine heart, Sigma-Aldrich, 20 mU/ml final concentration) are incubated in the absence or presence of the test compound (10 dilution concentrations) for 30 min at room temperature in kinase buffer (15 mM potassium phosphate buffer, pH 7.0, 60 mM KCl, 1.5 mM DTT, 2.5 mM MgCl2, 0.0125% (w/v) BSA, 0.125% Pluronic F-68). The kinase reaction is started by the addition of 4 μl ATP substrate solution (fc 5 μM in kinase buffer). After 30 min incubation at 37° C. 40 μl of PDC reaction solution (100 mM Tris/HCl, pH 7.8, 0.5 mM EDTA, 1 mM MgCl2, 50 mM NaF, 0.25 mM Coenzyme A, 5 mM pyruvate, 1 mM NAD, 5 mM DTT, 1 mM thiamine pyrophosphate) is added. The first fluorescence measurement is performed on a Perkin Elmer Envision (Exc 340 nm, Em 450 nm). The reaction is incubated for 45 min at room temperature. Afterwards a second fluorescence measurement is performed and the PDC activity is calculated by the difference between both measurements. As full value for the PDHK2 assay the inhibitor-free PDHK2 reaction is used. The pharmacological zero value used is DCA (Sigma-Aldrich) in a final concentration of 3 mM. The inhibitory values (IC50) were determined using either the program Symyx Assay Explorer® or Condosseo® from GeneData.

[1] = tested on: PDH-E1alpha (pSer300) in HEK293T cells; test: Cellular immunofluorescence assay, PDH-E1alpha (pSer300); type: cell-based; conditions: Homo sapiens, HEK-293T, 5 hours incubation, read-out: IC50 (cell data)
Description: Cellular Assay for Determination of Compound Activities
Compound activities were determined in a cellular immunofluorescence assay. Human HEK293T cells were seeded into black 384-well plates with clear bottom and grown overnight.
Next day, test compounds were added to the wells and the plates incubated for 5 hours. Following this, cells were fixed with formaldehyde, permeabilised and blocked. The primary antibody, Anti-PDH-E1alpha (pSer300), AP1064 (Merck Millipore) was added and incubated overnight in the plate wells. Next, cells were washed and the seconday antibody, Alexa Fluor 488, goat anti-rabbit ab (A-11008, Invitrogen) was added together with Hoechst 33258 (H3569, Invitrogen) and incubated for 1 hour in the plate wells. Finally, cells were washed and the plates were measured on the laser scanning cytometer acumen hci (TTpLabtech).
The raw data were normalized against a pharmacological inhibitor control and dose response curves were generated by plotting the percent effect values using the software package Genedata screener (Genedata).

Kd (human PDHK2 (12-407)) [µM] | IC50 (PDHK2) [µM] | Compound | IC50 [1] [µM]
0.0026 | 0.09 | Cc1ccc(-c2nnc(C3([C@H]4CCN(C(=O)[C@@](C)(O)C(F)(F)F)C[C@H]4C)CC3)[nH]2)cc1 [Compound A22, (R)-3,3,3-Trifluoro-2-hydroxy-2-methyl-1-{(3S,4S)-3-methyl-4-[1-(5-p-tolyl-4H-[1,2,4]triazol-3-yl)-cyclopropyl]-piperidin-1-yl}-propan-1-one] | 0.016
0.0041 | 0.1 | Cc1ccc(-c2nnc(C3([C@H]4CCN(C(=O)[C@@](C)(O)C(F)(F)F)C[C@H]4C)CC3)o2)cc1 [Compound A25, (R)-3,3,3-Trifluoro-2-hydroxy-2-methyl-1-{(3S,4S)-3-methyl-4-[1-(5-p-tolyl-[1,3,4]oxadiazol-2-yl)-cyclopropyl]-piperidin-1-yl}-propan-1-one] | 0.03
0.0025 | 0.088 | COc1ccc(-c2nnc(C3([C@H]4CCN(C(=O)[C@@](C)(O)C(F)(F)F)C[C@H]4C)CC3)[nH]2)cc1 [Compound A28, (R)-3,3,3-Trifluoro-2-hydroxy-1-((3S,4S)-4-{1-[5-(4-methoxy-phenyl)-4H-[1,2,4]triazol-3-yl]-cyclopropyl}-3-methyl-piperidin-1-yl)-2-methyl-propan-1-one] | 0.012
0.0036 | 0.18 | COc1ccc(-c2nnc(C3([C@H]4CCN(C(=O)[C@@](C)(O)C(F)(F)F)C[C@H]4C)CC3)o2)cc1 [Compound A31, (R)-3,3,3-Trifluoro-2-hydroxy-1-((3S,4S)-4-{1-[5-(4-methoxy-phenyl)-[1,3,4]oxadiazol-2-yl]-cyclopropyl}-3-methyl-piperidin-1-yl)-2-methyl-propan-1-one] | 0.017
0.0028 | 0.18 | C[C@@H]1CN(C(=O)[C@@](C)(O)C(F)(F)F)CC[C@@H]1C1(c2nnc(-c3ccc(Cl)cc3)[nH]2)CC1 [Compound A34, (R)-1-((3S,4S)-4-{1-[5-(4-Chloro-phenyl)-4H-[1,2,4]triazol-3-yl]-cyclopropyl}-3-methyl-piperidin-1-yl)-3,3,3-trifluoro-2-hydroxy-2-methyl-propan-1-one] | 0.019
0.0024 | 0.13 | C[C@@H]1CN(C(=O)[C@@](C)(O)C(F)(F)F)CC[C@@H]1C1(c2nnc(-c3ccc(Cl)cc3)o2)CC1 [Compound A37, (R)-1-((3S,4S)-4-{1-[5-(4-Chloro-phenyl)-[1,3,4]oxadiazol-2-yl]-cyclopropyl}-3-methyl-piperidin-1-yl)-3,3,3-trifluoro-2-hydroxy-2-methyl-propan-1-one] | 0.025
0.0065 | 0.091 | COc1ccc(-c2nnc(C3([C@H]4CCN(C(=O)[C@@](C)(O)C(F)(F)F)C[C@H]4C)CC3)[nH]2)cn1 [Compound A40, (R)-3,3,3-Trifluoro-2-hydroxy-1-((3S,4S)-4-{1-[5-(6-methoxy-pyridin-3-yl)-4H-[1,2,4]triazol-3-yl]-cyclopropyl}-3-methyl-piperidin-1-yl)-2-methyl-propan-1-one] | 0.025
0.0038 | 0.1 | COc1ccc(-c2nnc(C3([C@H]4CCN(C(=O)[C@@](C)(O)C(F)(F)F)C[C@H]4C)CC3)o2)cn1 [Compound A43, (R)-3,3,3-Trifluoro-2-hydroxy-1-((3S,4S)-4-{1-[5-(6-methoxy-pyridin-3-yl)-[1,3,4]oxadiazol-2-yl]-cyclopropyl}-3-methyl-piperidin-1-yl)-2-methyl-propan-1-one] | 0.016
